Results from patent US10344024B2, “Compounds as ROR gamma modulators” (Glenmark Pharmaceuticals S.A., priority 2015, dated 2019).

Biological target: T1, GST-tagged ROR gamma ligand binding domain (LBD) (Homo sapiens, UniProt P51449)
T1 construct: purchased Invitrogen
T1 sequence (P51449 269-508 limits assumed): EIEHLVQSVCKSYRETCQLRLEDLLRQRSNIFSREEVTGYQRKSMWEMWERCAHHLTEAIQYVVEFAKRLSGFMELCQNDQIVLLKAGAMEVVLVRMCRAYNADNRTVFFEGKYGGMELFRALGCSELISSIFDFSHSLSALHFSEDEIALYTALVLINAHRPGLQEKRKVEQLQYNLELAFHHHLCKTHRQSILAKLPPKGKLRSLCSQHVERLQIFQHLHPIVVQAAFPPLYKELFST
Assay: TR-FRET assay for ROR gamma (LanthaScreen co-activator peptide recruitment)
Format: biochemical
Conditions: for inhibition at 1 µM: compound concentration 1 μM; for inhibition at 1 µM / inhibition at 10 µM: TR-FRET ratio 520/495, percent of control; for inhibition at 10 µM: compound concentration 10 μM; for IC50: from dose response curve, nonlinear regression, read-out: IC50 range
Summary of the method: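 Antagonist-mode co-activator recruitment: 10 nM GST-RORγ LBD with compound (4% DMSO final) in 25 mM HEPES pH 7.4, 100 mM NaCl, 5 mM DTT, 0.01% BSA, 1 h at 22° C.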

Row | Compound | inhibition at 1 µM [%] | inhibition at 10 µM [%] | IC50 [nM]
1 | CCC(F)(F)c1ccc(CC(=O)Nc2ccc(-c3nccnc3N(C)[C@@H](C)c3ccc(Cl)cc3)cc2)cc1 [Example 65, (S)-N-(4-(3-((1-(4-Chlorophenyl)ethyl)(methyl)amino)pyrazin-2-yl)phenyl)-2-(4-(1,1-difluoropropyl)phenyl)acetamide] | 76.1 | 83.2 | 100 to 500
2 | CCC(F)(F)c1ccc(CC(=O)Nc2ccc(-c3nccnc3N[C@@H](C)c3ccccc3Cl)cc2)cc1 [Example 66, (S)-N-(4-(3-((1-(2-Chlorophenyl)ethyl)amino)pyrazin-2-yl)phenyl)-2-(4-(1,1-difluoropropyl)phenyl)acetamide] | 88.4 | 90.2 | < 50
3 | CCC(F)(F)c1ccc(CC(=O)Nc2ccc(-c3nccnc3N[C@@H](C)c3ccc(F)cc3C)cc2)cc1 [Example 67, (S)-2-(4-(1,1-Difluoropropyl)phenyl)-N-(4-(3-((1-(4-fluoro-2-methylphenyl)ethyl)amino)pyrazin-2-yl)phenyl)acetamide] | 87.9 | 92.4 | < 50
4 | CC(O)C(F)(F)c1ccc(CC(=O)Nc2ccc(-c3nccnc3N[C@@H](C)c3ccccc3Cl)cc2)cc1 (stereo partly drawn) [Example 68, N-(4-(3-(((S)-1-(2-Chlorophenyl)ethyl)amino)pyrazin-2-yl)phenyl)-2-(4-(1,1-difluoro-2-hydroxypropyl)phenyl)acetamide] | 93.5 | 96.9 | < 50
5 | CCC(F)(F)c1ccc(CC(=O)Nc2ccc(-c3nccnc3N[C@@H](C)c3ccc(C)cc3C)cc2)cc1 [Example 69, (S)-2-(4-(1,1-Difluoropropyl)phenyl)-N-(4-(3-((1-(2,4-dimethylphenyl)ethyl)amino)pyrazin-2-yl)phenyl)acetamide] | 97 | 97.1 | < 50
6 | CCC(F)(F)c1ccc(CC(=O)Nc2ccc(-c3nccnc3N[C@@H](C)c3ccc(F)cc3Cl)cc2)cc1 [Example 70, (S)-N-(4-(3-((1-(2-Chloro-4-fluorophenyl)ethyl)amino)pyrazin-2-yl)phenyl)-2-(4-(1,1-difluoropropyl)phenyl)acetamide] | 94.1 | 93.8 | < 50
7 | CC(O)C(F)(F)c1ccc(CC(=O)Nc2ccc(-c3nccnc3NCC3CCCCC3)cc2)cc1 (stereo not shown) [Example 71, N-(4-(3-((Cyclohexylmethyl)amino)pyrazin-2-yl)phenyl)-2-(4-(1,1-difluoro-2-hydroxypropyl)phenyl)acetamide] | 20.5 | 73.7 | 
8 | CC(O)C(F)(F)c1ccc(CC(=O)Nc2ccc(-c3nccnc3N[C@@H](C)c3ccc(Cl)cc3)cc2)cc1 (stereo partly drawn) [Example 72, N-(4-(3-(((S)-1-(4-Chlorophenyl)ethyl)amino)pyrazin-2-yl)phenyl)-2-(4-(1,1-difluoro-2-hydroxypropyl)phenyl)acetamide] | 86.9 | 93.4 | < 50
9 | CC(O)C(F)(F)c1ccc(CC(=O)Nc2ccc(-c3nccnc3N[C@@H](C)c3ccccc3Cl)cc2F)cc1 (stereo partly drawn) [Example 73, N-(4-(3-(((S)-1-(2-Chlorophenyl)ethyl)amino)pyrazin-2-yl)-2-fluorophenyl)-2-(4-(1,1-difluoro-2-hydroxypropyl)phenyl)acetamide] | 78.5 | 89.2 | 100 to 500
10 | CC(O)C(F)(F)c1ccc(CC(=O)Nc2ccc(-c3nccnc3N[C@@H](C)c3ccccc3Cl)c(F)c2)cc1 (stereo partly drawn) [Example 74, N-(4-(3-(((S)-1-(2-Chlorophenyl)ethyl)amino)pyrazin-2-yl)-3-fluorophenyl)-2-(4-(1,1-difluoro-2-hydroxypropyl)phenyl)acetamide] | 79.2 | 89.9 | 50 to 100
11 | CCC(F)(F)c1ccc(CC(=O)Nc2ccc(-c3nccnc3OCc3ccccc3)cc2)cc1 [Example 75, N-(4-(3-(Benzyloxy)pyrazin-2-yl)phenyl)-2-(4-(1,1-difluoropropyl)phenyl)acetamide] | 75.7 | 84.2 | 50 to 100
12 | CCC(F)(F)c1ccc(CC(=O)Nc2ccc(-c3nccnc3OC(C)c3ccccc3)cc2)cc1 (stereo not shown) [Example 76, 2-(4-(1,1-Difluoropropyl)phenyl)-N-(4-(3-(1-phenylethoxy)pyrazin-2-yl)phenyl)acetamide] | 78.1 | 87.5 | 100 to 500
13 | CCC(F)(F)c1ccc(CC(=O)Nc2ccc(-c3nccnc3OCc3ccc(F)cc3Cl)cc2)cc1 [Example 77, N-(4-(3-((2-Chloro-4-fluorobenzyl)oxy)pyrazin-2-yl)phenyl)-2-(4-(1,1-difluoropropyl)phenyl)acetamide] | 80.5 | 73.7 | < 50
14 | CC(O)C(F)(F)c1ccc(CC(=O)Nc2ccc(-c3nccnc3OCc3ccccc3)cc2)cc1 (stereo not shown) [Example 78, N-(4-(3-(Benzyloxy)pyrazin-2-yl)phenyl)-2-(4-(1,1-difluoro-2-hydroxypropyl)phenyl)acetamide] | 89.6 | 93.9 | < 50
15 | CCC(F)(F)c1ccc(CC(=O)Nc2ccc(-c3nccnc3O[C@H](C)c3ccccc3)cc2)cc1 [Example 79, (R)-2-(4-(1,1-Difluoropropyl)phenyl)-N-(4-(3-(1-phenylethoxy)pyrazin-2-yl)phenyl)acetamide] | 69.5 | 85.8 | 100 to 500
16 | CCC(F)(F)c1ccc(CC(=O)Nc2ccc(-c3nccnc3O[C@@H](C)c3ccccc3)cc2)cc1 [Example 80, (S)-2-(4-(1,1-Difluoropropyl)phenyl)-N-(4-(3-(1-phenylethoxy)pyrazin-2-yl)phenyl)acetamide] | 69.5 | 86.3 | 100 to 500
17 | CCC(F)(F)c1ccc(CC(=O)Nc2ccc(-c3nccnc3OC(C)c3ccccc3C3CC3)cc2)cc1 (stereo not shown) [Example 81, N-(4-(3-(1-(2-Cyclopropylphenyl)ethoxy)pyrazin-2-yl)phenyl)-2-(4-(1,1-difluoropropyl)phenyl)acetamide] | 83.2 | 88.3 | 100 to 500
18 | CC(O)C(F)(F)c1ccc(CC(=O)Nc2ccc(-c3nccnc3OC3(c4ccccc4)CC3)cc2)cc1 (stereo not shown) [Example 82, 2-(4-(1,1-Difluoro-2-hydroxypropyl)phenyl)-N-(4-(3-(1-phenylcyclopropoxy)pyrazin-2-yl)phenyl)acetamide] | 37.9 | 80.1 | 
19 | CCC(F)(F)c1ccc(CC(=O)Nc2ccc(-c3nccnc3O[C@H](C)c3ccccc3Cl)cc2)cc1 [Example 83, (R)-N-(4-(3-(1-(2-Chlorophenyl)ethoxy)pyrazin-2-yl)phenyl)-2-(4-(1,1-difluoropropyl)phenyl)acetamide] | 79.7 | 78.2 | 50 to 100
20 | CC(O)C(F)(F)c1ccc(CC(=O)Nc2ccc(-c3nccnc3O[C@H](C)c3ccccc3Cl)cc2)cc1 (stereo partly drawn) [Example 84, N-(4-(3-((R)-1-(2-Chlorophenyl)ethoxy)pyrazin-2-yl)phenyl)-2-(4-(1,1-difluoro-2-hydroxypropyl)phenyl)acetamide] | 83.8 | 81.9 | 50 to 100
